As usually defined, the IC50 is the midpoint of a concentration-inhibition curve. Higher therefore signals weaker potency in that assay.

Our source for the IC50 values is BindingDB's records for doi:10.1021/jm960799i (Dupont Pharmaceuticals, 1997).

Structures can show the parent of a compound that is named as a salt.

Integrin alpha-IIb/beta-3, sequence (P05106 27-788 limits assumed): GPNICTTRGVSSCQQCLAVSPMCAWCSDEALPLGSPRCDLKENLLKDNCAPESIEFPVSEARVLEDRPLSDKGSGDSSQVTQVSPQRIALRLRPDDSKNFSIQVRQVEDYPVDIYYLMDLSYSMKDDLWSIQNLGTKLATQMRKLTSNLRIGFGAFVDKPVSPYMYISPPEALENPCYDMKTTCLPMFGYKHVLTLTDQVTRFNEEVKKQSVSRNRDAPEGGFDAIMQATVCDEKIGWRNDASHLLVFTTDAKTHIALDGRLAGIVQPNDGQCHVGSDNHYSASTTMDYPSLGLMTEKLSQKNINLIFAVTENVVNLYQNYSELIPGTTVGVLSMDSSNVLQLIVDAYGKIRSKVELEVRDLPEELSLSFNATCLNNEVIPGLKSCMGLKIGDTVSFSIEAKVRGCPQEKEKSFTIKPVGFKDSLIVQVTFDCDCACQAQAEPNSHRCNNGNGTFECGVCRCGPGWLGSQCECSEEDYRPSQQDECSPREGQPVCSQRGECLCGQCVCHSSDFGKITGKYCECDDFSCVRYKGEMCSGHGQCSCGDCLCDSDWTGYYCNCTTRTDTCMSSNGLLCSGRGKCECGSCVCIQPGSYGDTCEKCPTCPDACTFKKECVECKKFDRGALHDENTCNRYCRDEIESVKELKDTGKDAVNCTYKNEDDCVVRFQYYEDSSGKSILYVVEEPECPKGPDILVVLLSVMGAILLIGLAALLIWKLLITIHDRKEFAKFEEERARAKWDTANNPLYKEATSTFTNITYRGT
Integrin alpha-IIb/beta-3, sequence (P08514 32-887 limits assumed): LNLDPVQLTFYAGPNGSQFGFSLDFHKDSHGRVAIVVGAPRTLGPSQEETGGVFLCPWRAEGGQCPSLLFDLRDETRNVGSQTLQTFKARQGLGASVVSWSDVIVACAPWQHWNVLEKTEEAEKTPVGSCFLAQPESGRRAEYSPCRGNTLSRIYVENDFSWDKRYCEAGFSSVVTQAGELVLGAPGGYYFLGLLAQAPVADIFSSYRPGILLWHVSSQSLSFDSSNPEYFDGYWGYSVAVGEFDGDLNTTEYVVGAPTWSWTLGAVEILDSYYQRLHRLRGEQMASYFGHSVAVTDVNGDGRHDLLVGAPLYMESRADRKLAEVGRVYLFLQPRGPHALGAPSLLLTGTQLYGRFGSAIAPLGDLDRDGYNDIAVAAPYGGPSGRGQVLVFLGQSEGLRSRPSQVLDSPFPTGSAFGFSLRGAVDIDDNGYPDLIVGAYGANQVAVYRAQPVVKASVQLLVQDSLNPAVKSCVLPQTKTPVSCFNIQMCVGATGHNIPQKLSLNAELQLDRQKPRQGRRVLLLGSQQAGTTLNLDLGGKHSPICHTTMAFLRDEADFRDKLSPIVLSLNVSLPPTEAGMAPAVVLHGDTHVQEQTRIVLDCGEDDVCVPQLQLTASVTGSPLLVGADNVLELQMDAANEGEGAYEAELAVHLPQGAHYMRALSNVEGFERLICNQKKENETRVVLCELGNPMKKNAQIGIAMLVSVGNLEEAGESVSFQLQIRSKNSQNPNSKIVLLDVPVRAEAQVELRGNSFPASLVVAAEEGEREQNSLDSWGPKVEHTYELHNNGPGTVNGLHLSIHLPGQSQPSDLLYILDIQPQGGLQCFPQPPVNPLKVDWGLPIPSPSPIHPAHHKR
Integrin alpha-IIb/beta-3, sequence (P08514 891-1039 limits assumed): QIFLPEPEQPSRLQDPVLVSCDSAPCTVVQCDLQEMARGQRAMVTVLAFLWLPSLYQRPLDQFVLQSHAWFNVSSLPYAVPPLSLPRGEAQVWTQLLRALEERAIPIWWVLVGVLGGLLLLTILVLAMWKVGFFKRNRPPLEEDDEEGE

This experiment has as its target Integrin alpha-IIb/beta-3 (Homo sapiens, UniProt P08514+P05106). As to the kind of experiment: In vitro inhibition of ADP-induced platelet aggregation in human platelet rich plasma (hPRP).
Regarding `N=C(N)c1ccc(C2=NOC(CC(=O)NC[C@H](NC(=O)OCCC3CC3)C(=O)O)C2)cc1` (stereo partly drawn) [(S)-3-{2-[3-(4-Carbamimidoyl-phenyl)-4,5-dihydro-isoxazol-5-yl]-acetylamino}-2-(2-cyclopropyl-ethoxycarbonylamino)-propionic acid; TFA], it took 36 nM to reach half-maximal inhibition (IC50).

As to `N=C(N)c1ccc(C2=NOC(CC(=O)NC[C@H](NC(=O)OCCC(F)(F)F)C(=O)O)C2)cc1` (stereo partly drawn) [(S)-3-{2-[3-(4-Carbamimidoyl-phenyl)-4,5-dihydro-isoxazol-5-yl]-acetylamino}-2-(3,3,3-trifluoro-propoxycarbonylamino)-propionic acid; TFA], inhibition was half-maximal at 31 nM (IC50). The IC50 values of the last two compounds are within 1.5-fold of each other. `N=C(N)c1ccc(C2=NOC(CC(=O)NC[C@H](NC(=O)CCc3ccccc3)C(=O)O)C2)cc1` (stereo partly drawn) [(S)-3-{2-[3-(4-Carbamimidoyl-phenyl)-4,5-dihydro-isoxazol-5-yl]-acetylamino}-2-(3-phenyl-propionylamino)-propionic acid; TFA] displayed a 50% inhibitory concentration (IC50) of 31 nM.

With `COC(=O)[C@H](CNC(=O)CC1CC(c2ccc(C(=N)N)cc2)=NO1)NC(=O)Nc1ccccc1` (stereo partly drawn) [(S)-3-{2-[3-(4-Carbamimidoyl-phenyl)-4,5-dihydro-isoxazol-5-yl]-acetylamino}-2-(3-phenyl-ureido)-propionic acid methyl ester; TFA], the IC50 was 69 nM. `CCc1ccc(C(=O)N[C@@H](CNC(=O)CC2CC(c3ccc(C(=N)N)cc3)=NO2)C(=O)O)cc1` (stereo partly drawn) [(S)-3-{2-[3-(4-Carbamimidoyl-phenyl)-4,5-dihydro-isoxazol-5-yl]-acetylamino}-2-(4-ethyl-benzoylamino)-propionic acid; TFA]: half-maximal inhibition (IC50) was put at 49 nM.

The compound `N=C(N)c1ccc(C2=NOC(CC(=O)NC[C@H](NC(=O)c3ccc4ccccc4c3)C(=O)O)C2)cc1` (stereo partly drawn) [(S)-3-{2-[3-(4-Carbamimidoyl-phenyl)-4,5-dihydro-isoxazol-5-yl]-acetylamino}-2-[(naphthalene-2-carbonyl)-amino]-propionic acid; TFA] yielded a half-inhibitory concentration (IC50) of 61 nM. For the compound `CCCCCCOC(=O)N[C@@H](CNC(=O)CC1CC(c2ccc(C(=N)N)cc2)=NO1)C(=O)O` (stereo partly drawn) [(S)-3-{2-[3-(4-Carbamimidoyl-phenyl)-4,5-dihydro-isoxazol-5-yl]-acetylamino}-2-hexyloxycarbonylamino-propionic acid; TFA], the concentration for half-maximal inhibition (IC50) came to 41 nM. `CC(C)COC(=O)N[C@@H](CNC(=O)CC1CC(c2ccc(C(=N)N)cc2)=NO1)C(=O)O` (stereo partly drawn) [(S)-3-{2-[3-(4-Carbamimidoyl-phenyl)-4,5-dihydro-isoxazol-5-yl]-acetylamino}-2-isobutoxycarbonylamino-propionic acid; TFA] yielded a half-inhibitory concentration (IC50) of 47 nM.

The compound `CC(C)OC(=O)N[C@@H](CNC(=O)CC1CC(c2ccc(C(=N)N)cc2)=NO1)C(=O)O` (stereo partly drawn) [(S)-3-{2-[3-(4-Carbamimidoyl-phenyl)-4,5-dihydro-isoxazol-5-yl]-acetylamino}-2-isopropoxycarbonylamino-propionic acid; TFA] registered an IC50 of 130 nM. In turn, `COC(=O)N[C@@H](CNC(=O)CC1CC(c2ccc(C(=N)N)cc2)=NO1)C(=O)O` (stereo partly drawn) [(S)-3-{2-[3-(4-Carbamimidoyl-phenyl)-4,5-dihydro-isoxazol-5-yl]-acetylamino}-2-methoxycarbonylamino-propionic acid; TFA] registered a half-maximal inhibitory concentration (IC50) of 65 nM. In the case of `N=C(N)c1ccc(C2=NOC(CC(=O)NC[C@H](NC(=O)OCCc3ccccc3)C(=O)O)C2)cc1` (stereo partly drawn) [(S)-3-{2-[3-(4-Carbamimidoyl-phenyl)-4,5-dihydro-isoxazol-5-yl]-acetylamino}-2-phenethyloxycarbonylamino-propionic acid; TFA] it was 55 nM. As for `N=C(N)c1ccc(C2=NOC(CC(=O)N[C@@H](CC(=O)O)C(=O)N3CCSCC3)C2)cc1` (stereo partly drawn) [(S)-3-{2-[3-(4-Carbamimidoyl-phenyl)-4,5-dihydro-isoxazol-5-yl]-acetylamino}-4-oxo-4-thiomorpholin-4-yl-butyric acid; TFA], the half-maximal inhibitory concentration (IC50) amounted to 360 nM. In the case of `N=C(N)c1ccc(C2=NOC(CC(=O)N[C@H](CC(=O)O)Cc3ccccc3)C2)cc1` (stereo partly drawn) [(S)-3-{2-[3-(4-Carbamimidoyl-phenyl)-4,5-dihydro-isoxazol-5-yl]-acetylamino}-4-phenyl-butyric acid; hydrochloride] it was 1400 nM; in that of `N=C(N)c1ccc(C2=NOC(CC(=O)N[C@@H](CC(=O)O)C(=O)NCCc3ccccc3)C2)cc1` (stereo partly drawn) [(S)-3-{2-[3-(4-Carbamimidoyl-phenyl)-4,5-dihydro-isoxazol-5-yl]-acetylamino}-N-phenethyl-succinamic acid; TFA], 68 nM. In the case of `N=C(N)c1ccc(C2=NO[C@@H](CC(=O)N[C@@H](CC(=O)O)c3cccnc3)C2)cc1` [(S)-3-{2-[(R)-3-(4-Carbamimidoyl-phenyl)-4,5-dihydro-isoxazol-5-yl]-acetylamino}-3-pyridin-3-yl-propionic acid; TFA] it was 170 nM; in that of `N=C(N)c1ccc(C2=NOC(CC(=O)N[C@@H](CC(=O)O)C(=O)N3CCC4CCC(CC4)C3)C2)cc1` (stereo partly drawn) [(S)-4-(3-Aza-bicyclo[4.2.2]dec-3-yl)-3-{2-[3-(4-carbamimidoyl-phenyl)-4,5-dihydro-isoxazol-5-yl]-acetylamino}-4-oxo-butyric acid; TFA], 210 nM; in that of `N=C(N)c1ccc(C2=NOC(CC(=O)N[C@@H](CC(=O)O)C(=O)NCC34CC5CC(CC(C5)C3)C4)C2)cc1` (stereo partly drawn) [(S)-N-Adamantan-1-ylmethyl-3-{2-[3-(4-carbamimidoyl-phenyl)-4,5-dihydro-isoxazol-5-yl]-acetylamino}-succinamic acid; TFA], 95 nM. For `N=C(N)c1ccc(C2=NOC(CC(=O)N[C@@H](CC(=O)O)C(=O)NC3C4CC5CC(C4)CC3C5)C2)cc1` (stereo partly drawn) [(S)-N-Adamantan-2-yl-3-{2-[3-(4-carbamimidoyl-phenyl)-4,5-dihydro-isoxazol-5-yl]-acetylamino}-succinamic acid; TFA], the concentration for half-maximal inhibition (IC50) was 140 nM. This IC50 and that of the compound before are within 1.5-fold of each other. As for `CCCCN(Cc1ccccc1)C(=O)[C@H](CC(=O)O)NC(=O)CC1CC(c2ccc(C(=N)N)cc2)=NO1` (stereo partly drawn) [(S)-N-Benzyl-N-butyl-3-{2-[3-(4-carbamimidoyl-phenyl)-4,5-dihydro-isoxazol-5-yl]-acetylamino}-succinamic acid; TFA], the figure is 180 nM.
